In US20220406434A1, “METHOD AND SYSTEM FOR EVALUATING OPTIMIZED CONCENTRATION TRAJECTORIES FOR DRUG ADMINISTRATION” (DEUTSCHES KREBSFORSCHUNGSZENTRUM STIFTUNG DES OEFFENTLICHEN …, priority 2019, published 2022):

B1: CD95L: CD95 cell death ligand; binds CD95 death receptors and induces apoptosis (protein, UniProt P48023 130-281, looked up)
Tumor necrosis factor ligand …: QIGHPSPPPEKKELRKVAHLTGKSNSRSMPLEWEDTYGIVLLSGVKYKKGGLVINETGLYFVYSKVYFRGQSCNNLPLSHKVYMRNSKYPQDLVMMEGKMMSYCTTGQMWARSSYLGAVFNLTSADHLYVNVSELSLVNFEESQTFFGLYKL

How the values were obtained:
[1] = system: triple-negative breast cancer cells; settings: sequential but not simultaneous application of erlotinib and doxorubicin, time interval of about 24 hours; cited from earlier work
[2] = system: CD95-HeLa cells; test: Live-cell imaging with drug perfusion: CD95L-induced apoptosis under RL-optimized versus constant concentration trajectory; type: cell-based, human
Protocol: The experimental setup consisted of an automated live-cell microscope and infusion pumps for empty medium or CD95L stock solution placed inside a standard cell culture incubator. The microscope was combined with a surrounding, separable, autoclavable box for ensuring a sterile environment inside the incubator. Empty medium and the CD95L stock solution were guided through silicon tubes (inner diameter: 1 mm) connected to a t-shaped adapter piece. The t-adapter was connected with a microfluidic chip containing approximately 80,000 CD95-HeLa cells (human cervix carcinoma cell line overexpressing CD95 death receptors). Thereby, cells could be perfused by a mixture of CD95L stock solution and empty medium. For adjusting the CD95L concentration in each step of an experiment, a constant volume of 0.8 ml was infused. This volume comprised varying fractions of CD95L stock solution and empty medium. […] The total dose was set to 400 ng of CD95L according to a stock solution volume of 1.6 ml. Accordingly, cells could be perfused with CD95L at concentrations between zero and the stock concentration. During the experiment, images of the perfused cells were recorded every 3 minutes using the live-cell microscope. […]

| Molecule | cell death [1] | cell death kinetics (apoptotic cell fractions) ([2]; first RL-optimized CD95L concentration trajectory vs constant 50 ng/ml, same total dose 400 ng, 180 minutes, FIG. 13F) | cell death (apoptotic cell fractions) ([2]; optimized CD95L trajectory from second RL iteration vs constant concentration or first-iteration trajectory, total dose 400 ng, FIG. 14G) |
| --- | --- | --- | --- |
| C#Cc1cccc(Nc2ncnc3cc(OCCOC)c(OCCOC)cc23)c1 [erlotinib] | maximizes cell death |  |  |
| COc1cccc2c1C(=O)c1c(O)c3c(c(O)c1C2=O)C[C@@](O)(C(=O)CO)C[C@@H]3O[C@H]1C[C@H](N)[C@H](O)[C@H](C)O1 [doxorubicin] | maximizes cell death |  |  |
| B1 |  | substantially accelerated cell death kinetics | accelerated cell death |
